Assay results published in patent publication US20170107579A1, “E1 ENZYME MUTANTS AND USES THEREOF” (Millennium Pharmaceuticals, Inc., priority 2011, published 2017).

Columns and labels:
[1] = system: HCT-116 WT, HCT-116.1 A171T and HCT-116.4 C324Y cells; test: Drug efflux inhibitor co-incubation, ATPlite viability assay; assay type: cell-based; settings: co-treatment with MLN4924, 96 hours
Experimental: Treatment of cells with efflux inhibitors. FIG. 8A. […] Co-incubation studies were performed with various inhibitors of drug efflux at their highest non toxic concentration.
Diypridamole (Sigma), MK571 (Tocris), GF918, K0143 (Tocris) and LY5979 were obtained from commercial sources indicated.

[2] = biological target: T1, UBA3 variant with A171T mutation (NAE) (Homo sapiens, UniProt Q8TBC4, A171T); test: NAE HTRF assay, IC50 at KM for ATP (120 μM); assay type: biochemical; settings: for IC50: UBA3 A171T mutant, HTRF assay at KM for ATP, 120 μM; for A171T/WT: ratio of IC50 A171T mutant to IC50 wild type
T1 construct: His; made in house; host or cells: E. coli Rosetta (DE3), co-expression
Experimental: (§1) The enzyme reversibility assay was run in the FLAG-NEDD8-GST-UBC12 HTRF transthiolation assay described previously (Soucy et al., 2009, Brownell et al., 2010). Final concentrations of each enzyme after dilution were 10 pM WT NAEβ, 12.5 pM A171T NAEβ, 30 pM N209K NAEβ, and 33 pM E204K/G201V NAEβ.
(§2) IC50 measurements were performed in the HTRF assay described in Example 6. Assays for each enzyme were performed at their KM for ATP (20 μM for wild type, 120 μM for the A171T mutant).
(§3) An NAE enzymatic reaction totals 50 μL and contains 50 mM HEPES (pH 7.5), 0.05% BSA, 5 mM MgCl2, 20 μM ATP, 250 μM GSH, 0.01 μM UBC12-GST, 0.075 NEDD8-Flag and 0.28 nM recombinant human NAE enzyme. The enzymatic reaction mixture, with and without compound inhibitor, is incubated at 24° C. for 90 minutes in a 384-well plate before termination with 25 μL of Stop/Detection buffer (0.1M HEPES pH 7.5, 0.05% Tween20, 20 mM EDTA, 410 mM KF, 0.53 nM Europium-Cryptate labeled monoclonal anti-FLAG M2 antibody (CisBio International) and 8.125 μg/mL PHYCOLINK goat anti-GST allophycocyanin (XL-APC) antibody (Prozyme)). After incubation for 3 hours at 24° C., quantification of the FRET is performed on the Analyst™ HT 96.384 (Molecular Devices).

wild type UBA3 (NAE) = biological target: T2, wild type UBA3 (NAE) (Homo sapiens, UniProt Q8TBC4); test: NAE HTRF assay, IC50 at KM for ATP (20 μM); assay type: biochemical; settings: read-out: NAE WT IC50
T2 construct: His; made in house; host or cells: E. coli Rosetta (DE3), co-expression
Experimental: as §1, §2, §3

[3] = system: MLN4924 resistant HCT-116 cell clones; test: Cell viability assay, 96 hours ATPlite, resistant clones; assay type: cell-based; settings: HCT-116 resistant clones, 96 hours ATPlite
Experimental: HCT-116 cells and resistant clones were treated with DMSO or various concentrations of FIG. 7A. bortezomib, FIG. 7B. doxorubicin or FIG. 7C. SN-38 for 96 hours and cell viability was assessed with ATPlite assay.
Cell line cultures were maintained using appropriate cell culture media as recommended by ATCC and as previously reported (Soucy et al., 2009, Milhollen et al., 2010). […] Cell viability assays completed using 96 hours ATPlite assay (PerkinElmer) as previously reported (Soucy et al., 2009).

T1 sequence (Q8TBC4 whole entry A171T): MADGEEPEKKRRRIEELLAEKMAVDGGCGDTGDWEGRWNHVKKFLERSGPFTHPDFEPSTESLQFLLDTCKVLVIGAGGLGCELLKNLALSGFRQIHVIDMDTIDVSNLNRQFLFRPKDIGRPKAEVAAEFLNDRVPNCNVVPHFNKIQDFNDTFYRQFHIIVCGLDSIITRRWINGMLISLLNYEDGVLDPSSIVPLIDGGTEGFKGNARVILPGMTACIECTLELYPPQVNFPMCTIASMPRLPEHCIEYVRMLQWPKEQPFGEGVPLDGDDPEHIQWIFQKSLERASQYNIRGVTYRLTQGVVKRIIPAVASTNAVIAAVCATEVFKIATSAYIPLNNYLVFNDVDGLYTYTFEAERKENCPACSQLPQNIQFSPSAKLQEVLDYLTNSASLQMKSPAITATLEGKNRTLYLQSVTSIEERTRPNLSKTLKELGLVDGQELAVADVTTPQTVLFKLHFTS
T1 sequence (Q13564 whole entry partner): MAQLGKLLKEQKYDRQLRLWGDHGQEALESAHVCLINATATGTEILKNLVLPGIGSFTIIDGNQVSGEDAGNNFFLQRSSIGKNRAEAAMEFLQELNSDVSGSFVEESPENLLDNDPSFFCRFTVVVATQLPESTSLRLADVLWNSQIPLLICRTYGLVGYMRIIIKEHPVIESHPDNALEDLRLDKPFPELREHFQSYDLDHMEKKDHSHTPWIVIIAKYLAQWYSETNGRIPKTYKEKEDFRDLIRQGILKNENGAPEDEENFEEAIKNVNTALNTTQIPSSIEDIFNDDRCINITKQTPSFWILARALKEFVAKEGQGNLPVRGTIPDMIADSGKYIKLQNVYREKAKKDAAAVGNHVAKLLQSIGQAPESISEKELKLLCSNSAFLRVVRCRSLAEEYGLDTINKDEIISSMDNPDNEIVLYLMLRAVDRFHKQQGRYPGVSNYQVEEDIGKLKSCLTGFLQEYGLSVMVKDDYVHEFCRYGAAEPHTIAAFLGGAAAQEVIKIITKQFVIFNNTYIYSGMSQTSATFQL
T1 sequence (Q15843 1-76 partner limits assumed): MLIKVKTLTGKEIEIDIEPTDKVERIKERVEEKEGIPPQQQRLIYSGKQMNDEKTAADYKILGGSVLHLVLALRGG
T2 sequence (Q8TBC4 whole entry): as the sequence (Q8TBC4 whole entry A171T) above, with T171A counted along it
T2 sequence (Q13564 whole entry partner): as the sequence (Q13564 whole entry partner) above
T2 sequence (Q15843 1-76 partner limits assumed): as the sequence (Q15843 1-76 partner limits assumed) above

Row | IC50 [2] [nM] | A171T/WT [2] | IC50 (wild type UBA3 (NAE)) [nM] | Compound | sensitization of cells to MLN4924 by Pgp, BCRP and MRP2 inhibitors [1] | sensitivity of MLN4924 resistant clones to other chemotherapies [3]
1 |  |  |  | CN(C)C(=O)CCSC(SCCC(=O)O)c1cccc(/C=C/c2ccc3ccc(Cl)cc3n2)c1 (stereo not drawn) [MK519] | did not sensitize | 
2 |  |  |  | COc1ccc2c3c([nH]c2c1)[C@H](CC(C)C)N1C(=O)[C@H](CCC(=O)OC(C)(C)C)NC(=O)[C@@H]1C3 [Compound K0143] | did not sensitize | 
3 | 630 | 9 | 72 | CNc1ncnc2c1ccn2C1CC(O)C(COS(N)(=O)=O)C1 (stereo not drawn) [Compound I-40] |  | 
4 | 84 | 115 | 0.73 | NS(=O)(=O)OCC1OC(n2cnc3c(NCc4ccccc4)ncnc32)C(O)C1O (stereo not drawn) [Compound I-6] |  | 
5 |  |  |  | CCc1c2c(nc3ccc(O)cc13)-c1cc3c(c(=O)n1C2)COC(=O)[C@]3(O)CC [SN-38] |  | remained sensitive
